According to patent publication US20240391931A1 (Bristol-Myers Squibb Company, priority 2021, published 2024):

Tests used:
HER2 = target: T1, HER2 (Homo sapiens, UniProt P04626); experiment: HER2 occupancy assay in N87 cells; type: cell-based; details: concentration at which 50% of HER2 is irreversible bound, read-out: N87 HER2 Occ
T1 construct: BT474 and N87 cell lines which endogenously overexpress the HER2 wildtype (WT) protein; endogenous in cells; host or cells: BT474, N87
Protocol: In order to assess free HER2 protein, a biotinylated probe was utilized. BT474, N87, and Ba/F3-HER2YVMA cells were treated with test compound as described for HER2 signaling. After compound treatment, cells were washed three times with cold phosphate buffer saline (PBS, Life Technologies, Carlsbad, CA), and lysed in modified occupancy lysis buffer prepared with an irreversible biotinylated tool compound (1 μM) in 25 mM Tris pH 7.5, 150 mM NaCl, 1% Triton, and supplemented with cOmplete, EDTA-free Protease inhibitor cocktail (Roche), Phosphatase Inhibitor Cocktails 2 and 3 (Sigma-Aldrich), and 1 mM PMSF (Sigma-Aldrich).
To determine % occupancy, lysates were loaded into duplicate plates of the phospho (Tyr1248)/total ErbB2 whole cell lysate MSD kit (Meso-Scale Discovery) and incubated overnight. Plates were washed and incubation with either HER2-sulfoTag (1:50, Meso Scale Discovery) or Strep-Sulfo Tag (1:1000, Meso Scale Discovery), for detection of […]. A standard curve of untreated cells in serial dilution was included in each plate to independently fit streptavidin (Free HER2) and total HER2 MSD signals; non-specific signal (BSA control spots) was subtracted from each well. Free HER2 was then normalized by total HER2 for each sample. The results are reported as % DMSO control. The normalized data was fitted using a sigmoidal curve analysis program (Graph Pad Prism version 6) with variable Hill slope to determine EC50 values. The results are provided in Table 4, under columns titled “BT474-HER2 Occ”, “N87-HER2 Occ”, and “Ba/F3 YVMA-HER2 Occ”. HER2 Occ is the concentration of test compound at which 50% of HER2 is irreversible bound.

EGFR = EGFR (Homo sapiens, UniProt P00533); experiment: EGFR occupancy in N87 cells; type: cell-based; set-up: endogenous in cells; host or cells: N87; details: N87 cells; concentration at which 50% of EGFR is irreversible bound; read-out: N87 EGFR Occ
EGFR, sequence (P00533 25-1210): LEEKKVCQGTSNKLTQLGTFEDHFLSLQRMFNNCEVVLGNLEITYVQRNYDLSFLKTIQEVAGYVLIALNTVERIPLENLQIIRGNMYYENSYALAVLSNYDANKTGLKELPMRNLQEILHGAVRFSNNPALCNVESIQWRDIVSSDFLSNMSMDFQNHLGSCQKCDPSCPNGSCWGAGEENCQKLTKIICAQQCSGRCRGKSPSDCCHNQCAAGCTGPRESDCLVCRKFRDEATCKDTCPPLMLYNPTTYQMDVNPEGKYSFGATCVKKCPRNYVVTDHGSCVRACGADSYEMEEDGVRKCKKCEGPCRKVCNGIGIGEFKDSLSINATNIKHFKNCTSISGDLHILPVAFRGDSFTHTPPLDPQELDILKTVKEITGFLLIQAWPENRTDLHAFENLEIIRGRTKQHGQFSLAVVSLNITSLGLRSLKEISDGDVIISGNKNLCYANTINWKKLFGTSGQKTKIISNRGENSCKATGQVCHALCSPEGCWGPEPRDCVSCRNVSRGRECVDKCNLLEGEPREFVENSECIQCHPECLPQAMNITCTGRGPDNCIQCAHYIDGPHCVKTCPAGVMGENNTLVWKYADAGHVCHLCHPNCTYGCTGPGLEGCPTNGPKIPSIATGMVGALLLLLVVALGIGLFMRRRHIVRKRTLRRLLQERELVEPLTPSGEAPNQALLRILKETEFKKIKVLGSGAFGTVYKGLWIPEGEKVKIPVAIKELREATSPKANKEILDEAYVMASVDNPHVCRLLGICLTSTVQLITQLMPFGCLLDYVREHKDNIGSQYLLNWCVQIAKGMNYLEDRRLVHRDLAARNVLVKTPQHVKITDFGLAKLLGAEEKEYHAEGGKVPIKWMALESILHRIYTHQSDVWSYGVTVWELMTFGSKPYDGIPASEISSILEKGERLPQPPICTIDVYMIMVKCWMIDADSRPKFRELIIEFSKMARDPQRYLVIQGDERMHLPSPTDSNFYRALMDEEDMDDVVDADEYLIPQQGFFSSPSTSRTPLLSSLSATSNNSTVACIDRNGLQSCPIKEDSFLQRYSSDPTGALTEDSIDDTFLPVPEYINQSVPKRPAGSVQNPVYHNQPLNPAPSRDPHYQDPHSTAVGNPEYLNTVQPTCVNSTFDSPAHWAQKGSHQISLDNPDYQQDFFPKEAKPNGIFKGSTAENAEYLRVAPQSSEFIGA
Protocol: In order to assess free EGFR protein, a biotinylated probe was utilized as described for HER2 occupancy. N87 cells were plated, treated, and lysed as described for HER2 occupancy method. After treatment, the cells were washed three times with cold PBS, lysed at room temperature for 1 hr in modified occupancy lysis buffer (prepared as described in section titled “HER2 Occupancy Assay”). Lysates were stored at −70° C. until further analysis. For determination of % occupancy, lysates were loaded into duplicate plates of the phospho (Tyr 1068)/total EGFR whole cell lysate kit (Meso-Scale Discovery) and incubated overnight. Plates were washed and incubated with either EGFR-sulfoTag (1:50, Meso Scale Discovery) or Strep-Sulfo Tag (1:1000, Meso Scale Discovery), for detection of free and total EGFR, respectively. BSA control spots included in MSD plates were used to subtract non-specific signal. A standard curve of untreated cells in serial dilution was included in each plate to convert streptavidin and total EGFR MSD signals into free EGFR and total EGFR. Free EGFR was normalized to total EGFR for each sample. Data, reported as % […] control, was fitted using a sigmoidal curve analysis program (Graph Pad Prism version 6) with variable Hill slope to determine EC50 values. The results are provided in Table 4, under column titled “N87-EGFR Occ”. EGFR Occ is the concentration of test compound at which 50% of EGFR is irreversible bound.

T1 sequence (P04626 23-1255): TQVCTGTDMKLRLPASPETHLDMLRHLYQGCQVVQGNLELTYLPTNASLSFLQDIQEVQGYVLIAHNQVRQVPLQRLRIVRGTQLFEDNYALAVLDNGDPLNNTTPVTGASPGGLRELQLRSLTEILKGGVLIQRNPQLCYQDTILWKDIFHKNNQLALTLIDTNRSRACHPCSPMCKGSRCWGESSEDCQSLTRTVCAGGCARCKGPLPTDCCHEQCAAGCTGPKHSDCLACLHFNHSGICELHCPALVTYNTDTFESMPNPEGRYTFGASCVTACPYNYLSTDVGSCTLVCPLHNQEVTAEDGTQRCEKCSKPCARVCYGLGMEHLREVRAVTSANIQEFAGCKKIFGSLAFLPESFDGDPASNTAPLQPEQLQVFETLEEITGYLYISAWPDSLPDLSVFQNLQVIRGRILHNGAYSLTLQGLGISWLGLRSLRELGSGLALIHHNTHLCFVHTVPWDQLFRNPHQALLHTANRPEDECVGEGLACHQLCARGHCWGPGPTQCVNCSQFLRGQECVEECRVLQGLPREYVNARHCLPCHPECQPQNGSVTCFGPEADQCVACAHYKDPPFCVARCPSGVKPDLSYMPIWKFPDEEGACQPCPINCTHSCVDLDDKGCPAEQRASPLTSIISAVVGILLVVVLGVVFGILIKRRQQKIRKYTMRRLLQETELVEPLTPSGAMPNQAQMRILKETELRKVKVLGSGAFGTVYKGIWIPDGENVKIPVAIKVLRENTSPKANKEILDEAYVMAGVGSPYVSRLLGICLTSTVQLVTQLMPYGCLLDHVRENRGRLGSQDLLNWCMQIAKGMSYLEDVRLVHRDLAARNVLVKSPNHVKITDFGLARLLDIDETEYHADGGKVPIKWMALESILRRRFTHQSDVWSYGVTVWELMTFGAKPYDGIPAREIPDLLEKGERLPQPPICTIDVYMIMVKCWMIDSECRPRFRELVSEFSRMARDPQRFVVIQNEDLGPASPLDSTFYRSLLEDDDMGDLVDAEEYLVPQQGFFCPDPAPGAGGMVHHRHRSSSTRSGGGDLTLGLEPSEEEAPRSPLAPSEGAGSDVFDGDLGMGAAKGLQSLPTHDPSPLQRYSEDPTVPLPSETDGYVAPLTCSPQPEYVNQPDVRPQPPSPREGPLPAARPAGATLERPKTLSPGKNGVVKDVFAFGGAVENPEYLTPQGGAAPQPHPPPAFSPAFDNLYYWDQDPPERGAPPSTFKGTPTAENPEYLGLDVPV

EC50 (HER2) [µM] | EC50 (EGFR) [µM] | Compound
< 0.1 | – | CN(C)C/C=C/C(=O)N1CCc2c(sc3ncnc(Nc4ccc(Oc5ccc6ncnn6c5)c(Cl)c4)c23)C1 [Compound 5, (E)-1-(4-((4-([1,2,4]triazolo[1,5-a]pyridin-6-yloxy)-3-chlorophenyl)amino)-5,8-dihydropyrido[4′,3′:4,5]thieno[2,3-d]pyrimidin-7(6H)-yl)-4-(dimethylamino)but-2-en-1-one]
< 0.1 | 0.1 to 0.35 | COc1ccc(Oc2ccc(Nc3ncnc4sc5c(c34)CCN(C(=O)/C=C/CN(C)C)C5)cc2C)cn1 [Compound 95, (E)-4-(Dimethylamino)-1-(4-((4-((6-methoxypyridin-3-yl)oxy)-3-methylphenyl)amino)-5,6-dihydropyrido[4′,3′:4,5]thieno[2,3-d]pyrimidin-7(8H)-yl)but-2-en-1-one]
